The values below come from patent publication US8586755B2, “Substituted nicotinamides as KCNQ2/3 modulators” (Grünenthal GmbH, priority 2009, dated 2013).

In one test the target is T1, KCNQ2/3 channels (Homo sapiens, UniProt O43525+O43526).
T1 construct: expressed in transfected cells
The test can be described thus: Fluorescence assay using a voltage sensitive dye (fluorimetry). It is filed as cell-based. The note with it: CHO-K1 cells expressing KCNQ2/3 channels; for EC50: agonistic activity; for Emax: retigabine 50 μM = 100%, read-out: Fluorimetry % efficacy (retigabine 50 μM = 100%). The gist of the method:
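Agonist EC50s come from the F2 vs F1 fluorescence comparison, F2 taken at the peak after KCl depolarisation (92 mM final) and F1 after 30 min compound exposure at room temperature. Assay uses KCNQ2/3-expressing CHO-K1 cells stained 45 min with a red voltage-sensitive dye in pH 7.4 ES buffer.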

The next test has as its system Sprague-Dawley rats. The test can be described thus: Low-intensity tail flick in the rat. The settings on record: po, MPE, read-out: Low-intensity tail flick rat p.o. % effect (dose [mg/kg]). It is filed as in vivo. An excerpt: Low-Intensity Tail Flick in the Rat
The antinociceptive effectiveness of the test substance towards an acute, noxious thermal stimulus was studied in the focal ray (tail flick) test in the rat according to the method of D'Amour and Smith (J. Pharm. Exp. Ther. 72, 74 79 (1941)). Male Sprague-Dawley rats (breeder: Janvier, Le Genest St. Isle, France) weighing from 200 to 250 g were used for this purpose. The animals were accommodated individually in special test compartments and the base of the tail was exposed to the focused ray of an analgesia meter (model 2011, Rhema Labortechnik, Hofheim, Germany). 10 animals were used per group. Before a substance according to the invention was administered, the withdrawal latency (time from switching on of the focal ray to the sudden withdrawal of the tail) was determined twice at an interval of five minutes and the mean value was defined as the control latency time. The intensity of the focal ray was chosen so that the control latency time was 7 to 9 seconds. Measurement of the withdrawal latency was then repeated 10, 20, 30 and 60 minutes after peroral administration of substance. The antinociceptive action of the test substance was determined as the increase in the withdrawal latency time according to the following formula: MPE[%]=[(T1−T0)/(T2−T0)]×100 where: T0=control latency time before administration of substance, T1=latency time after administration of substance, T2=maximum exposure time to the focal ray (30 seconds), MPE=maximum possible effect.
Variance analysis (repeated measures ANOVA) was used to test for statistically significant differences between the substance group and the vehicle group. The level of significance was set at ≦0.05.

As to `O=C(NCC1CC2CCC1C2)c1cccnc1SCCCc1cccc(C(F)(F)F)c1` (stereo not shown) [compound 27, N-(5-Bicyclo[2.2.1]heptanyl-methyl)-2-[3-[3-(trifluoromethyl)phenyl]-propylsulfanyl]-pyridine-3-carboxylic acid amide], on KCNQ2/3 channels, the response was half-maximal at 85 nM (EC50) and the Emax turned out to be 210%. In addition, the inhibition in vivo at 10 mg/kg with Sprague-Dawley rats (dose 10.0 mg/kg) is 18%.

Take `O=C(NCC1CCCCC1)c1cccnc1SCCCc1ccc(F)cc1` [compound 40, N-(Cyclohexyl-methyl)-2-[3-(4-fluorophenyl)-propylsulfanyl]-pyridine-3-carboxylic acid amide]: on KCNQ2/3 channels, the EC50 was determined as 129 nM and the Emax turned out to be 144%. Further, the inhibition in vivo at 21.5 mg/kg with Sprague-Dawley rats (dose 21.5 mg/kg) was 26%.

In the case of `O=C(NCC1CCOCC1)c1cccnc1SCCC(F)(F)c1ccc(F)cc1` [compound 189, 2-[[3,3-Difluoro-3-(4-fluorophenyl)-propyl]sulfanyl]-N-(tetrahydro-pyran-4-yl-methyl)-pyridine-3-carboxylic acid amide], at KCNQ2/3 channels, the EC50 amounted to 287 nM and the Emax came out at 161%.

As for `O=C(NCc1ccco1)c1cccnc1SCCC(F)(F)c1ccc(F)cc1` [compound 190, 2-[[3,3-Difluoro-3-(4-fluorophenyl)-propyl]sulfanyl]-N-(furan-2-yl-methyl)-pyridine-3-carboxylic acid amide], on KCNQ2/3 channels, the EC50 came to 26 nM and the Emax is 214%.

Turning to `Cc1ccc(CNC(=O)c2cccnc2SCCC(F)(F)c2ccc(F)cc2)o1` [compound 191, 2-[[3,3-Difluoro-3-(4-fluorophenyl)-propyl]sulfanyl]-N-[(5-methyl-furan-2-yl)-methyl]-pyridine-3-carboxylic acid amide], on KCNQ2/3 channels, the midpoint of the response, the EC50, lay at 37 nM and the Emax stood at 202%.

Consider `CCCCCNC(=O)c1cccnc1SCCC(F)(F)c1ccc(F)cc1` [compound 192, 2-[[3,3-Difluoro-3-(4-fluorophenyl)-propyl]sulfanyl]-N-pentyl-pyridine-3-carboxylic acid amide], for which, on KCNQ2/3 channels, the EC50 came out at 32 nM and the Emax came to 195%.

On to `COC(C)CCNC(=O)c1cccnc1SCCC(F)(F)c1ccc(F)cc1` (stereo not shown) [compound 193, 2-[[3,3-Difluoro-3-(4-fluorophenyl)-propyl]sulfanyl]-N-(3-methoxy-butyl)-pyridine-3-carboxylic acid amide], for which, on KCNQ2/3 channels, a half-maximal effect (EC50) was put at 371 nM and the Emax is 206%.

For `COC(C)CNC(=O)c1cccnc1SCCC(F)(F)c1ccc(F)cc1` (stereo not shown) [compound 194, 2-[[3,3-Difluoro-3-(4-fluorophenyl)-propyl]sulfanyl]-N-(2-methoxy-propyl)-pyridine-3-carboxylic acid amide], on KCNQ2/3 channels, the EC50 was found to be 232 nM and the Emax worked out at 203%.

On to `CCC(CNC(=O)c1cccnc1SCCC(F)(F)c1ccc(F)cc1)OC` (stereo not shown) [compound 195, 2-[[3,3-Difluoro-3-(4-fluorophenyl)-propyl]sulfanyl]-N-(2-methoxy-butyl)-pyridine-3-carboxylic acid amide], for which, on KCNQ2/3 channels, the EC50 was determined as 48 nM and the Emax came to 122%.

In the case of `COC(=O)CCNC(=O)c1cccnc1SCCC(F)(F)c1ccc(F)cc1` [compound 196, 3-[[2-[[3,3-Difluoro-3-(4-fluorophenyl)-propyl]sulfanyl]-pyridine-3-carbonyl]amino]-propionic acid methyl ester], at KCNQ2/3 channels, the EC50 worked out at 3710 nM and the Emax came to 190%.

As to `O=C(O)CCNC(=O)c1cccnc1SCCC(F)(F)c1ccc(F)cc1` [compound 197, 3-[[2-[[3,3-Difluoro-3-(4-fluorophenyl)-propyl]sulfanyl]-pyridine-3-carbonyl]amino]-propionic acid], on KCNQ2/3 channels, a half-maximal effect (EC50) was put at 14700 nM and the Emax stood at 128%.

Consider `CN(C)CCNC(=O)c1cccnc1SCCC(F)(F)c1ccc(F)cc1` [compound 198, 2-[[3,3-Difluoro-3-(4-fluorophenyl)-propyl]sulfanyl]-N-(2-dimethylaminoethyl)-pyridine-3-carboxylic acid amide], for which, at KCNQ2/3 channels, a half-maximal response (EC50) required 8840 nM and the Emax was found to be 110%.

For the compound `CC(CCc1ccc(F)c(F)c1)Sc1ncccc1C(=O)NCc1ccc(F)cc1` (stereo not shown) [compound 199, 2-[[3-(3,4-Difluoro-phenyl)-1-methyl-propyl]sulfanyl]-N-[(4-fluorophenyl)-methyl]-pyridine-3-carboxylic acid amide], at KCNQ2/3 channels, a half-maximal response (EC50) required 20 nM and the Emax was determined as 124%.

Regarding `CC(C)CCNC(=O)c1cccnc1SC(C)CCc1ccc(F)c(F)c1` (stereo not shown) [compound 200, 2-[[3-(3,4-Difluoro-phenyl)-1-methyl-propyl]sulfanyl]-N-(3-methyl-butyl)-pyridine-3-carboxylic acid amide], on KCNQ2/3 channels, a half-maximal response (EC50) required 40 nM and the Emax came out at 230%.

Consider `CC(CCc1cccc(F)c1)Sc1ncccc1C(=O)NCc1ccc(F)cc1` (stereo not shown) [compound 201, N-[(4-Fluorophenyl)-methyl]-2-[[3-(3-fluorophenyl)-1-methyl-propyl]sulfanyl]-pyridine-3-carboxylic acid amide], for which, on KCNQ2/3 channels, a half-maximal effect (EC50) was put at 40 nM and the Emax was 128%.

With `CC(C)CCNC(=O)c1cccnc1SC(C)CCc1cccc(F)c1` (stereo not shown) [compound 202, 2-[[3-(3-Fluorophenyl)-1-methyl-propyl]sulfanyl]-N-(3-methyl-butyl)-pyridine-3-carboxylic acid amide], at KCNQ2/3 channels, the midpoint of the response, the EC50, lay at 71 nM and the Emax worked out at 235%.

Regarding `CC(C)CCNC(=O)c1cccnc1SC(C)CCc1cccc(C(F)(F)F)c1` (stereo not shown) [compound 203, N-(3-Methyl-butyl)-2-[[1-methyl-3-[3-(trifluoromethyl)phenyl]-propyl]sulfanyl]-pyridine-3-carboxylic acid amide], at KCNQ2/3 channels, the half-maximal effective concentration (EC50) was determined as 20 nM and the Emax is 233%.

On to `O=C(NCc1ccc(F)cc1)c1cccnc1SCCC(F)(F)c1ccc(F)c(F)c1` [compound 204, 2-[[3-(3,4-Difluoro-phenyl)-3,3-difluoro-propyl]sulfanyl]-N-[(4-fluorophenyl)-methyl]-pyridine-3-carboxylic acid amide], for which, at KCNQ2/3 channels, the EC50 was determined as 11 nM and the Emax stood at 125%.

For the compound `O=C(NCC12CCC(CC1)C2)c1cccnc1SCCC(F)(F)c1ccc(F)cc1` [compound 205, N-(1-Bicyclo[2.2.1]heptanyl-methyl)-2-[[3,3-difluoro-3-(4-fluorophenyl)-propyl]sulfanyl]-pyridine-3-carboxylic acid amide], on KCNQ2/3 channels, a half-maximal response (EC50) required 28 nM and the Emax was found to be 294%.

For the compound `O=C(NCC12CCC(CC1)C2)c1cccnc1SCCCc1ccc(F)cc1` [compound 206, N-(1-Bicyclo[2.2.1]heptanyl-methyl)-2-[3-(4-fluorophenyl)-propylsulfanyl]-pyridine-3-carboxylic acid amide], at KCNQ2/3 channels, the response was half-maximal at 40 nM (EC50) and the Emax was determined as 293%.

For the compound `O=C(NCc1ccc(F)cc1)c1cccnc1SCCCc1cccc(C(F)(F)F)c1` [compound 207, N-[(4-Fluorophenyl)-methyl]-2-[3-[3-(trifluoromethyl)phenyl]-propylsulfanyl]-pyridine-3-carboxylic acid amide], on KCNQ2/3 channels, it took 34 nM to reach a half-maximal effect (EC50) and the Emax was 119%.

For `CC(C)CCNC(=O)c1cccnc1SCCCc1cccc(C(F)(F)F)c1` [compound 208, N-(3-Methyl-butyl)-2-[3-[3-(trifluoromethyl)phenyl]-propylsulfanyl]-pyridine-3-carboxylic acid amide], on KCNQ2/3 channels, the concentration for a half-maximal effect (EC50) was determined as 27 nM and the Emax turned out to be 207%.

In the case of `CC(C)CCNC(=O)c1cccnc1SCCC(F)(F)c1ccc(F)c(F)c1` [compound 209, 2-[[3-(3,4-Difluoro-phenyl)-3,3-difluoro-propyl]sulfanyl]-N-(3-methyl-butyl)-pyridine-3-carboxylic acid amide], on KCNQ2/3 channels, a half-maximal effect (EC50) was put at 9 nM and the Emax was found to be 228%.

Consider `O=C(NCC1C2CCC1CC2)c1cccnc1SCCC(F)(F)c1ccc(F)c(F)c1` (stereo not shown) [compound 210, N-(7-Bicyclo[2.2.1]heptanyl-methyl)-2-[[3-(3,4-difluoro-phenyl)-3,3-difluoro-propyl]sulfanyl]-pyridine-3-carboxylic acid amide], for which, on KCNQ2/3 channels, the EC50 turned out to be 14 nM and the Emax was 276%.

With `O=C(NCCO)c1cccnc1SCCC(F)(F)c1ccc(F)cc1` [compound 211, 2-[[3,3-Difluoro-3-(4-fluorophenyl)-propyl]sulfanyl]-N-(2-hydroxy-ethyl)-pyridine-3-carboxylic acid amide], on KCNQ2/3 channels, the EC50 was found to be 8830 nM and the Emax worked out at 87%.

What is called EC50 is the concentration giving half of the maximal effect. High values mean a need for much substance, low ones an effect from little substance.
